# Where two headings read alike, the source gives them in different places.
# Assays:
# recombinant MARK4 [1] = molecular target: T1, recombinant MARK4 (Homo sapiens, UniProt Q96L34); assay: Fluorescence binding (quenching, modified Stern-Volmer)
# T1 construct: made in house; host or cells: bacterial cells (Luria-Bertani broth, IPTG induction)
# T1 sequence (Q96L34 1-752): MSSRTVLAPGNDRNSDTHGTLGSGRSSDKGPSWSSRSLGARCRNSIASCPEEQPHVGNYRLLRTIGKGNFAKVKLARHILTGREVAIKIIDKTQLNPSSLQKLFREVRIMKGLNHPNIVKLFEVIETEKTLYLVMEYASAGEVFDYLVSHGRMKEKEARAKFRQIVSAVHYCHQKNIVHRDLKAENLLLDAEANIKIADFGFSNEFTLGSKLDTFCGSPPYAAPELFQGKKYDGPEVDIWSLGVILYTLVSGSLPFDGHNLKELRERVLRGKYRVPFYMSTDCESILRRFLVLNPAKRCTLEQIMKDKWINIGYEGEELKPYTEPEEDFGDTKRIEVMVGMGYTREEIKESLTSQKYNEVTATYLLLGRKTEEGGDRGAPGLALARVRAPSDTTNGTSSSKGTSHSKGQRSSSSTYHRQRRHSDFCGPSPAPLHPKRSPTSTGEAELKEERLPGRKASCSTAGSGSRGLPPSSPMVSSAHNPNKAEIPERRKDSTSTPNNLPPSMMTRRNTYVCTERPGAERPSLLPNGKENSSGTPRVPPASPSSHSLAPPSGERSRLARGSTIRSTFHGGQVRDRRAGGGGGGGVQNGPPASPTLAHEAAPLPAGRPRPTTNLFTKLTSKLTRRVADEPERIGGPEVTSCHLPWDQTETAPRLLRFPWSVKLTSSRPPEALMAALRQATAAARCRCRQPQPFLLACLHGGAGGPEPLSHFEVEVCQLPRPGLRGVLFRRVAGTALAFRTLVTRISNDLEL
# Protocol: To determine the binding affinities of the synthesized acridones with MARK4, we used fluorescence emission spectra measurements. Protein sample was excited at 280 nm and emission was measured in 300–400 nm range with increasing concentrations of each acridone derivative (0–100 µM). A significant decrease in fluorescence intensity of MARK4 with increasing concentrations of each compound was fitted in the modified Stern-Volmer equation to calculate the binding constant, Ka and the number of binding sites per protein molecule (n). All the synthesized acridones have been screened (Supplementary Fig. S6, S7 and Table S3) and those with the highest affinity have been selected (compounds 5, 7b, 7d, 7f and 7h) for further evaluation (Fig. 3). The binding constants of compound 5, 7b, 7d, 7f and 7h were estimated as 6.3 × 10^4 M^−1, 1.0 × 10^6 M^−1, 1.0 × 10^6 M^−1, 1.9 × 10^6 M^−1, and 3.1 × 10^5 M^−1, respectively (Fig. 3).
# Figure 3 Fluorescence binding studies of compound 5, 7b, 7d, 7f and 7h with MARK4. (A) Fluorescence emission spectra of MARK4 (10 µM) with increasing concentrations of the respective compound (5, 7b, 7d, 7f and 7h). Excitation wavelength was fixed at 280 nm and emission was recorded in 300–400 nm range. (B) Modified Stern-Volmer plot obtained from fluorescence quenching of MARK4 by compound 5, 7b, 7d, 7f and 7h, respectively. It was used to calculate binding affinity (Ka) and number of binding sites (n).
# Binding affinities of synthesized acridone derivatives with recombinant MARK4 was carried out by observing the fluorescence intensity change of emission spectrum of MARK4 by following our previously published protocol[44],[45]. Each titration of protein was performed in triplicates and the average was taken for analysis. A significant decreased in fluorescence intensity of protein with increase in the concentration of acridone derivatives were used as the criteria for deducing the binding constant (Ka) as well as number of binding sites (n) present on the protein molecule using the modified Stern-Volmer equation[46]:1 log(Fo−F)/F=logKa+nlog[L] where, Fo = Fluorescence intensity of native protein, F = Fluorescence intensity of protein in the presence of ligand, Ka = Binding constant, n = number of binding sites, L = concentration of ligand. The values for Ka and n were derived from the intercept and slope, respectively.
# recombinant MARK4 [2] = molecular target: T1, recombinant MARK4; assay: ATPase enzyme inhibition assay (Malachite Green); type: biochemical
# Protocol: To evaluate the inhibition activity of synthesized acridone derivatives against recombinant MARK4, ATPase enzyme inhibition assay was performed (Table S3). […] Our studies were initiated by replacing the ester group of 5 with sterically and electronically diverse amines affording the corresponding amides 7a–j, in order to establish favorable interactions with residues Ala135, Val70, Asp196 and/or Glu182. […] In this case, the docking studies indicate a better fit of 7h compared with 7g in the active site of MARK4 with a binding energy of −9.5 kcal/mol and a stronger predicted hydrogen bond with Ala135 (3.06 Å for 7h, 3.19 Å for 7g).
# Enzyme activity of MARK4 was evaluated with the help of standard Malachite Green (Biomol Green reagent, Enzo Life Sciences) microtitre-plate assay as described earlier. Estimated amount of MARK4 (200 ng) and 20 µM ATP as a substrate were incubated for 10–15 min at 25 °C with increasing concentrations (0–20 µM) of synthesized acridone derivatives, in 20 mM Tris buffer, pH 8.0. Reaction was terminated by the adding 100 µl of Biomol Green reagent and absorbance of final reaction products was recorded at 620 nm in a multiplate ELSIA reader (BioRad). In order to quantify the hydrolyzed phosphate, inorganic phosphate standard curve were prepared from the phosphate standard solutions as supplied by the manufacturer (Biomol Green reagent, Enzo Life Sciences). All data points represent triplicate measurements from at least three independent experiments.
# [3] = Table S3, fluorescence binding, read-out: Binding affinity (Ka) (converted)
# [4] = Table 1, from enzyme inhibition, read-out: IC50, (µM), MARK4
# [5] = ATPase inhibition, 20 µM ATP, read-out: IC50 against MARK4
SMILES,Kd (recombinant MARK4 [1]; [3]) [nM],IC50 (recombinant MARK4 [2]; [4]) [µM],IC50 (recombinant MARK4 [2]; [5]) [µM],"Kd (recombinant MARK4 [1]; fluorescence quenching, MARK4 10 µM, excitation 280 nm, read-out: binding constant, Ka (converted)) [nM]"
"COc1ccc(CNC(=O)Cn2c3ccccc3c(=O)c3cc(C)ccc32)cc1 [Compound 7d, N-(4-methoxybenzyl)-2-(2-methyl-9-oxoacridin-10(9H)-yl)acetamide]",1000,2.2 ± 0.05,,
"Cc1ccc2c(c1)c(=O)c1ccccc1n2CC(=O)NCc1ccccc1 [Compound 7b, N-benzyl-2-(2-methyl-9-oxoacridin-10(9H)-yl)acetamide]",1000,1.8 ± 0.04,,
"COC(=O)Cn1c2ccccc2c(=O)c2cc(C)ccc21 [Compound 5, Methyl 2-(2-methyl-9-oxoacridin-10(9H)-yl)acetate]",,,14.1 ± 1.02,15900

# More lines, now with the values ahead:
Kd (recombinant MARK4 [1]; [3]) [nM],IC50 (recombinant MARK4 [2]; [4]) [µM],IC50 (recombinant MARK4 [2]; [5]) [µM],"Kd (recombinant MARK4 [1]; fluorescence quenching, MARK4 10 µM, excitation 280 nm, read-out: binding constant, Ka (converted)) [nM]",SMILES
526,4.5 ± 0.52,,,"Cc1ccc(NC(=O)Cn2c3ccccc3c(=O)c3cc(C)ccc32)cc1 [Compound 7f, 2-(2-Methyl-9-oxoacridin-10(9H)-yl)-N-(p-tolyl)acetamide]"
3230,,12.1 ± 1.1,,"COc1ccccc1NC(=O)Cn1c2ccccc2c(=O)c2cc(C)ccc21 [Compound 7h, N-(2-methoxyphenyl)-2-(2-methyl-9-oxoacridin-10(9H)-yl)acetamide]"
